Entries after “also recorded” stand apart in the source; their conditions may differ.
Key:
AMD1 = biological target: T1, AMD1 (Homo sapiens, UniProt P17707); assay: gel-based RP-ABPP of transfected HEK293T cells; type: cell-based; details: transfected HEK293T cells
T1 construct: Full-length genes encoding three probe 1- and one probe 2-targeted proteins were amplified from a cDNA library; expressed in transfected cells; host or cells: HEK293T
T1 sequence (P17707 68-334 limits assumed): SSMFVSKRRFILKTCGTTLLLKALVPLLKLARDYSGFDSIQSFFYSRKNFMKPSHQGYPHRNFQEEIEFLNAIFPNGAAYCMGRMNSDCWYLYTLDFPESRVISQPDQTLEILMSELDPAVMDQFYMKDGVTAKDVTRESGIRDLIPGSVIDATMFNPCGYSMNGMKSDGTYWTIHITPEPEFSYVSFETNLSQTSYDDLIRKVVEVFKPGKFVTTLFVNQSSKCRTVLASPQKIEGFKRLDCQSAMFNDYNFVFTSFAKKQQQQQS
T1 sequence (P17707 1-67 limits assumed): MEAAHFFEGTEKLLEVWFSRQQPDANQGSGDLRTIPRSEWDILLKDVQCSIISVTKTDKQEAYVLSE

KEAP1 = biological target: T2, KEAP1 (Homo sapiens, UniProt Q14145); assay: gel-based RP-ABPP of transfected HEK293T cells; type: cell-based; details: transfected HEK293T cells
T2 construct: Full-length genes encoding three probe 1- and one probe 2-targeted proteins were amplified from a cDNA library; expressed in transfected cells; host or cells: HEK293T
Description: (§1) Soluble proteomes from treated cells were diluted to 1 mg/mL. To each sample (50 μL), a freshly prepared “click” or CuAAC reagent mixture (6 μL) containing 0.1 mM tris(benzyltriazolylmethyl)amine (TBTA) (3 μL/sample, 1.7 mM in 4:1 DMSO:t-BuOH), 1 mM CuSO4 (1 μL/sample, 50 mM in H2O), 25 μM azide-rhodamine (1 μL/sample, 1.25 mM in DMSO), and freshly prepared 1 mM tris(2-carboxyethyl)phosphine (TCEP) (1 μL/sample, 50 mM in PBS or H2O) was added to conjugate the fluorophore to probe-labelled proteins. TBTA was purchased from TCI and azide-rhodamine was synthesized as previously described^64. Upon addition of the click mixture, each reaction was immediately mixed by vortexing and then allowed to react at ambient temperature for 1 hour before quenching the reactions with SDS loading buffer (4× stock, 17 μL). Proteins (˜25 μg total protein loaded per gel lane) were resolved by SDS-PAGE (10% acrylamide) and visualized by in-gel fluorescence scanning on a Hitachi FMBIO-II or BioRad ChemiDoc MP flatbed fluorescence scanner.
(§2) Full-length genes encoding three probe 1- and one probe 2-targeted proteins were amplified from a cDNA library derived from the same low-passage HEK293T cells used for proteomic profiling. The library was generated using Ribozol RNA extraction (Amresco) and iScript reverse transcription (Bio-rad) supermix reagents. The gene products were cloned into mammalian expression vectors containing N- or C-terminal FLAG affinity tags. The gene for S-adenosyl-L-methionine decarboxylase (AMD1 or AdoMetDC) was cloned into pFLAG-CMV-sport6 (N-terminal tag) at NotI and SalI restriction sites. AMD1, Secernin-3 (SCRN3) and fat mass- and obesity-associated Fe(II)- and 20G-dependent dioxygenase (FTO) were cloned into pRK5 (C-terminal tag) at SalI and NotI restriction sites. Kelch-like ECH-associated protein-1 (Keapl) (N-terminal tag), and empty plasmids of pRK5 were gifts. Full sequences of the genes were confirmed. The proteins expressed via transient transfection in HEK293T cells contain an additional 15 amino acids appended to their N-terminal methionine residue or C-terminus (MDYKD4KLKACGR (SEQ ID NO: 43) and A3G4DYKD4K (SEQ ID NO: 44), respectively). The DYKD4K (SEQ ID NO: 42) appendage in each contains the classic FLAG epitope that permits detection by western blotting or purification by affinity chromatography. Mutants of SCRN3 were generated using QuikChange site-directed mutagenesis with primers containing the desired mutations and their respective compliments. The gene for the deletion mutant of SCRN3 with the sequence MetlCys6-SCRN3 instead of Met1 Glu2Pro3Phe4Ser5Cys6-SCRN3 (SEQ ID NO: 45) was amplified from the wild-type C-terminal FLAG-tagged construct and cloned into the same vector.
(§3) HEK293T cells were grown to ˜40% confluence under standard growth conditions passaged in the appropriate media before adding the appropriate expression vector (control cells (‘mock’) received an equal amount of the appropriate empty vector) and polyethyleneimine (PEI) ‘MAX’ (MW 40,000, Polysciences Inc.) as a transfection reagent under standard transfection conditions (3:1 vector/PEI (w/w) ratio). Cells were incubated for ˜48 h before labelling in situ. Proteomes were processed for gel- and MS-based experiments as described above and in Example 2.
(§4) After scanning fluorescence, that same gel was transferred to nitrocellulose membrane in Towbin buffer, the membrane was blocked for ˜1 hour at ambient temperature with 5% nonfat dry milk (w/v) in Tris-buffered saline with Tween 20 (TBST) and incubated with primary antibodies in the same solution overnight at 4° C. The antibodies included anti-FLAG (1:2500, F1804, Sigma), anti-AdoMetDC (1:500, sc-160951, Santa Cruz Biotechnology) and anti-His6 (1:1000, ab18184, Abcam). The blots were washed (3×5 min, TBST), incubated with secondary antibodies (1:10,000, IRDye 800CW, LICOR) in milk for 1 hour at ambient temperature, washed again (3×5 min, TBST), and visualized on a LICOR Odyssey Scanner.

FTO = biological target: T3, FTO (Homo sapiens, UniProt Q9C0B1); assay: gel-based RP-ABPP of transfected HEK293T cells; type: cell-based; details: transfected HEK293T cells
T3 construct: Full-length genes encoding three probe 1- and one probe 2-targeted proteins were amplified from a cDNA library; expressed in transfected cells; host or cells: HEK293T
Description: as §1, §2, §3, §4

SCRN3 = biological target: T4, SCRN3 (Homo sapiens, UniProt Q0VDG4); assay: gel-based RP-ABPP of transfected HEK293T cells; type: cell-based; details: transfected HEK293T cells
T4 construct: Full-length genes encoding three probe 1- and one probe 2-targeted proteins were amplified from a cDNA library; expressed in transfected cells; host or cells: HEK293T
T4 sequence (Q0VDG4 6-424): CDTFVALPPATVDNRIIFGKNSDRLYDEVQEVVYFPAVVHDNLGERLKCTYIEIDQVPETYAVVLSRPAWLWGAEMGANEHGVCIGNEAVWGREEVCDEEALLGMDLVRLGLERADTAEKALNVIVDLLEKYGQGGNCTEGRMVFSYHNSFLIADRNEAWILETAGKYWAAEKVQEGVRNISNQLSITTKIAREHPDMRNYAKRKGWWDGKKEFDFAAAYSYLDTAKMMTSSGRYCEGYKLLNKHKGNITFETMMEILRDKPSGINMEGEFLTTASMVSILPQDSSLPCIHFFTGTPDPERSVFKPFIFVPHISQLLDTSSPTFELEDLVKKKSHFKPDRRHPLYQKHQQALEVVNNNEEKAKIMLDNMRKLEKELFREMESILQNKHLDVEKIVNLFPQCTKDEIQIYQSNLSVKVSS
Description: as §1, §2, §3, §4

HEK293T cells = assay: gel-based in situ probe labelling (rhodamine-azide, in-gel fluorescence); type: cell-based, human; details: probe 1 3 mM, 30 min; dihydrochloride
Description: For gel-based experiments, cells were plated and grown to near complete confluence at the time of treatment. Cells were washed with cold phosphate buffered saline (PBS, pH 7.4) and replenished with serum-free DMEM (˜15% of normal passage volume, e.g. a 10 cm plate normally passaged with 10 mL media received 1.5 mL) supplemented with 10 mM Na-HEPES buffer (pH 7.5). Unless otherwise indicated, cells were incubated with probes (3 mM and 1 mM for probes 1 and 2, respectively) in the absence or presence of 10-fold excess non-clickable competitor probes (30 mM and 10 mM for 3 and 4, respectively) for 0.5 hour at 37° C. When applicable, probe and competitor were premixed before co-administering to the cells.
The cells were lysed, and the cell proteomes were conjugated to a rhodamine-azide (Rh—N3) reporter tag.
as §1

[1] = biological target: T5, SCRN2 Secernin-2 (Q96FV2) (Homo sapiens, UniProt Q96FV2); assay: SILAC RP-ABPP; type: cell-based; details: SILAC competition, drug in place of probe 3
T5 construct: shared by both the endogenous and recombinant forms of these proteins; endogenous in cells; host or cells: HEK293T and MDA-MB-231
Description: (§5) Modifications to this protocol included using isotopically ‘light’ and ‘heavy’ SILAC cells that were also grown to near complete confluence prior to treatment. Isotopically light cells were treated with the non-clickable hydrazine probe (at the same concentration as the probe in ‘enrichment’ experiments) or the probe in the presence of 10-fold excess non-clickable hydrazine probe as a competitor (in ‘competition’ experiments). Isotopically heavy cells were treated with the probe for both types of experiments. These treatments were performed in non-SILAC media. Following treatments, cells were washed with cold PBS to remove the probe-containing media, harvested by scraping, collected by centrifugation (1,400 g, 3 min, 4° C.), washed again by resuspension in cold PBS and frozen as pellets at −80° C. until use.
(§6) The fractionated equimolar mixture of heavy and light soluble proteomes (1-1.5 mg) was diluted to 1 mL in PBS. Click reactions were scaled accordingly (except for biotin-azide) to maintain final concentrations of 0.1 mM TBTA, 1 mM CuSO4, 100 μM biotin-azide (10 mM in DMSO) and 1 mM TCEP. The mixture was vortexed and placed on a rotator at ambient temperature for 1 hour. Sequential addition of and mixture with pre-chilled methanol (MeOH, 2 mL), chloroform (CHCl3, 0.5 mL) and PBS (1 mL) on ice quenched the reaction. The precipitated proteome was centrifuged (5,000 g, 10 min, 4° C.) to fractionate the protein interphase from the organic and aqueous solvent layers. The protein pellet was washed with cold 1:1 MeOH:CHCl3 (3×1 mL), mildly sonicated in cold 4:1 MeOH:CHCl3 (2.5 mL) and pelleted once more by centrifugation (5,000 g, 10 min, 4° C.) to ensure click reagents were efficiently removed.
(§7) Heavy and light parent ion chromatograms associated with successfully identified peptides were extracted and compared using CIMAGE software as previously described^69. At least one ion of a co-eluting heavy-light pair must be accurately identified from a fragmentation event that occurred within the retention time window (±10 min) of parent ion elution. To ensure that the correct pair of peaks is quantified, chromatograms are extracted within a 10 ppm error tolerance of the predicted m/z, the signal-to-noise ratio must be >2.5 and the ‘co-elution correlation score’ and ‘envelope correlation score’ must have R^2 values ≥0.8. In addition, peptides detected as ‘singletons,’ where only the heavy ion of a peptide pair was identified, but for which passed all other filtering parameters, are given a default assigned ratio of ‘20,’ which is defined as any measured ratio that is ≥20.
(§8) To further eliminate false positives and any stochastic variability in the data, protein ratios were then determined by the median peptide ratio derived from three or more unique quantified peptides. Protein ratios that complied with these criteria from a single experiment were then averaged with ratios acquired from ≥3 replicates to provide final values for each type of experiment in both cell lines with both probes. […] Probe targets in HEK293T and MDA-MB-231 cells represent data combined from ≥3 independent biological replicates with each cell type performed with several independent batches of synthesized probes over a period of almost two years.
(§9) Two types of experiments were performed—1) direct enrichment of probe 1-labelled proteins from heavy cells in comparison to light control cells treated with the non-clickable hydrazine (3) at the same concentration as 1 (3 mM for 0.5 h); and 2) competition experiments where both heavy and light cells were treated probe 1, but light cells were also treated with 10× competitor 3 (FIG. 3A)—in two different human cell lines (HEK293T cells and the human breast cancer cell line MDA-MB-231).

LGMN Legumain (Q99538) = biological target: T6, LGMN Legumain (Q99538) (Homo sapiens, UniProt Q99538); assay: SILAC RP-ABPP; type: cell-based; details: SILAC competition, drug in place of probe 3
T6 construct: shared by both the endogenous and recombinant forms of these proteins; endogenous in cells; host or cells: HEK293T and MDA-MB-231
T6 sequence (Q99538 18-323): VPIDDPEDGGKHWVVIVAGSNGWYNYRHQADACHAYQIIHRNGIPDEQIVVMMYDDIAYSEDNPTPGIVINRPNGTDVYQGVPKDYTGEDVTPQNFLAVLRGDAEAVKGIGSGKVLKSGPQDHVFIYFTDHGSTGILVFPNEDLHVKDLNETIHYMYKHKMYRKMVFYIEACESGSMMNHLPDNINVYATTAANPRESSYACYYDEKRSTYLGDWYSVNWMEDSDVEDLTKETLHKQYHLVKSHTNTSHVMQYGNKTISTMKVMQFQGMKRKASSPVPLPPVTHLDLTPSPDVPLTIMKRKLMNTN
Description: as §5, §6, §7, §8, §9

[2] = biological target: T7, SCRN3 Secernin-3 (Q0VDG4) (Homo sapiens, UniProt Q0VDG4); assay: SILAC RP-ABPP; type: cell-based; details: SILAC competition, drug in place of probe 3
T7 construct: shared by both the endogenous and recombinant forms of these proteins; endogenous in cells; host or cells: HEK293T and MDA-MB-231
T7 sequence (Q0VDG4 6-424): T4 sequence (Q0VDG4 6-424)
Description: as §5, §6, §7, §8, §9

[3] = biological target: T8, AMD1 S-adenosylmethionine decarboxylase (P17707) (Homo sapiens, UniProt P17707); assay: SILAC RP-ABPP; type: cell-based; details: SILAC competition, drug in place of probe 3
T8 construct: shared by both the endogenous and recombinant forms of these proteins; endogenous in cells; host or cells: HEK293T and MDA-MB-231
T8 sequence (P17707 68-334 limits assumed): T1 sequence (P17707 68-334 limits assumed)
T8 sequence (P17707 1-67 limits assumed): T1 sequence (P17707 1-67 limits assumed)
Description: as §5, §6, §7, §8, §9

Row | competition of probe 1 labelling by competitor drug [1] | competition of probe 1 labelling by competitor drug (LGMN Legumain (Q99538)) | competition of probe 1 labelling by competitor drug [2] | competition of probe 1 labelling by competitor drug [3] | Compound | blocking of probe labeling by excess non-clickable probe (AMD1) | blocking of probe labeling by excess non-clickable probe (KEAP1) | blocking of probe labeling by excess non-clickable probe (FTO) | blocking of probe labeling by excess non-clickable probe (SCRN3) | competition of probe 1 labelling by co-administered non-clickable probe (HEK293T cells)
1 |  |  |  |  | CCCNN.Cl.Cl [probe 3, Propyl hydrazine dihydrochloride, reference compound] | blocked | blocked | blocked | blocked | suppressed by increasing concentrations; also recorded: blocks the labeling of proteins by probe 1
2 | almost no competition | almost no competition | almost no competition | almost no competition | NNC(=O)c1ccncc1 [isoniazid, reference compound] |  |  |  |  | 

— patent US11226337B2, “Chemoproteomic profiling of protein electrophilic and oxidative post-translational modifications” (Zenagem, LLC, priority 2017, dated 2022)
